In assay [1] the target is BIR2 domain of XIAP (Homo sapiens (Human), UniProt P98170, C202A/C213G). The experiment in a line: TR-FRET assay for BIR2 (inhibition of binding of XIAP BIR2 domain to SMAC-derived Peptide A).
The target in assay [2] is BIR3 domain of XIAP (Homo sapiens (Human), UniProt P98170). The experiment in a line: TR-FRET assay for BIR3 (inhibition of binding of XIAP BIR3 domain to SMAC-derived Peptide A). As to conditions: 6x His-tagged BIR3 domain (aa 241-356 of XIAP) 10 nM, Peptide A 20 nM, TR-FRET. (In general: In TR-FRET formats the signal depends on donor and acceptor labels being close together.)

[3] abbreviates: 6x His-tagged BIR2 domain (aa 124-240 of XIAP) 10 nM, Peptide A 20 nM, TR-FRET, read-out: IC50 BIR2.

Structures can show the parent of a compound that is named as a salt. Where two headings read alike, the source gives them in different places. Where only a bound is given, the exact number is not on record here.

Sequence of BIR3 domain of XIAP (P98170 241-356 with tags or gaps limits assumed): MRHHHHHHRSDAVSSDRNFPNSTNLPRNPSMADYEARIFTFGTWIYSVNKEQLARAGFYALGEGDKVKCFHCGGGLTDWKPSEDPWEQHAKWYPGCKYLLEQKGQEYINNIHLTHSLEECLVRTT
Sequence of BIR2 domain of XIAP (P98170 124-240 with tags or gaps C202A/C213G limits assumed): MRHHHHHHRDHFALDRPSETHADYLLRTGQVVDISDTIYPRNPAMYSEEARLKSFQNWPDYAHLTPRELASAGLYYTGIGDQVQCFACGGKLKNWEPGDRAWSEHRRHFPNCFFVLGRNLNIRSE

What is called IC50 is the concentration that inhibits the measured activity by half. Turning to `CN[C@@H](C)C(=O)N[C@H]1CN(C(=O)c2ccc(C(=O)O)cc2)c2ccccc2N(Cc2c(C)ccc3ccccc23)C1=O` [Example 97, 4-[(S)-3-((S)-2-Methylamino-propionylamino)-5-(2-methyl-naphthalen-1-ylmethyl)-4-oxo-2,3,4,5-tetrahydro-benzo[b][1,4]diazepine-1-carbonyl]-benzoic acid hydrochloride], the IC50 in assay [1] (setting [3]) is 0.1 µM; in assay [2] it was over 54.8 µM.
For the compound `CN[C@@H](C)C(=O)N[C@H]1CN(S(=O)(=O)NC)c2ccccc2N(Cc2c(C)ccc3ccccc23)C1=O` [Example 98b], the IC50 in assay [1] (setting [3]) is 0.188 µM; in assay [2] it was over 54.8 µM.
Turning to `CN[C@@H](C)C(=O)N[C@H]1CN(S(=O)(=O)c2ccc([N+](=O)[O-])cc2)c2ccccc2N(Cc2c(C)ccc3ccccc23)C1=O` [Example 98d], the IC50 was determined as 0.182 µM in assay [1] (setting [3]) and 29 µM in assay [2].
As for `CN[C@@H](C)C(=O)N[C@H]1CN(S(=O)(=O)c2ccccc2)c2ccccc2N(Cc2c(C)ccc3ccccc23)C1=O` [Example 98e], the IC50 was 0.133 µM in assay [1] (setting [3]) and 31.6 µM in assay [2].
Regarding `CN[C@@H](C)C(=O)N[C@H]1CN(S(=O)(=O)c2ccc(OC)cc2)c2ccccc2N(Cc2c(C)ccc3ccccc23)C1=O` [Example 98f], the IC50 is 0.177 µM in assay [1] (setting [3]) and over 50 µM in assay [2].
The matching figures for `CN[C@@H](C)C(=O)N[C@H]1CN(S(=O)(=O)N(C)C)c2ccccc2N(Cc2c(C)ccc3ccccc23)C1=O` [Example 100, (S)—N—[(S)-5-Dimethylsulfamoyl-1-(2-methyl-naphthalen-1-ylmethyl)-2-oxo-2,3,4,5-tetrahydro-1H-benzo[b][1,4]diazepin-3-yl]-2-methylamino-propionamide hydrochloride]: 0.249 µM and over 54.8 µM.
The matching figures for `CN[C@@H](C)C(=O)N[C@H]1CN(C(=O)c2ccccc2C(C)=O)c2ccccc2N(Cc2c(C)ccc3ccccc23)C1=O` [Example 101, (S)—N—[(S)-5-(2-Acetyl-benzoyl)-1-(2-methyl-naphthalen-1-ylmethyl)-2-oxo-2,3,4,5-tetrahydro-1H-benzo[b][1,4]diazepin-3-yl]-2-methylamino-propionamide]: 0.036 µM and 53.4 µM.
For `CN[C@@H](C)C(=O)N[C@H]1CN(C(=O)c2ccc(C(C)=O)cc2)c2ccccc2N(CC(=O)Nc2cccc3ccccc23)C1=O` [Example 105, (2S)-N-[(3S)-1-(4-acetylbenzoyl)-5-[2-(naphthalen-1-ylamino)-2-oxoethyl]-4-oxo-2,3-dihydro-1,5-benzodiazepin-3-yl]-2-(methylamino)propanamide;2,2,2-trifluoroacetic acid], the half-inhibitory concentration (IC50) in assay [1] (setting [3]) stood at 0.503 µM; in assay [2] it was 46.1 µM.
The matching figures for `CN[C@@H](C)C(=O)N[C@H]1CN2C(=O)CNC(=O)c3ccc4c(c(OC)ccc4c3)CN(C1=O)c1ccccc12` [Example 108, Cyclic-5-[(S)-5-(3-Amino-acetyl)-3-((S)-2-methylamino-propionylamino)-2-oxo-2,3,4,5-tetrahydro-benzo[b][1,4]diazepin-1-ylmethyl]-6-methoxy-naphthalene-2-carboxylic amide hydrochloride]: 0.0172 µM and over 54.8 µM.
`CN[C@@H](C)C(=O)N[C@H]1CN(C(=O)c2ccc(C(C)=O)cc2)c2ccccc2N(CC(=O)Nc2nc3ccccc3s2)C1=O` [Example 109, (2S)-N-[(3S)-1-(4-acetylbenzoyl)-5-[2-(1,3-benzothiazol-2-ylamino)-2-oxoethyl]-4-oxo-2,3-dihydro-1,5-benzodiazepin-3-yl]-2-(methylamino)propanamide;2,2,2-trifluoroacctic acid]: the IC50 in assay [1] (setting [3]) is 0.121 µM; in assay [2] it was 42.3 µM.
The matching figures for `COc1ccc2ccccc2c1CN1C(=O)C(NC(=O)[C@H](C)N)C(=O)N(CC23CC4CC(CC(C4)C2)C3)c2ccccc21` (stereo partly drawn) [Example 111, (2S)-N-[5-(1-adamantylmethyl)-1-[(2-methoxynaphthalen-1-yl)methyl]-2,4-dioxo-1,5-benzodiazepin-3-yl]-2-aminopropanamide]: 0.295 µM and over 54.8 µM.
The matching figures for `CC[C@H](NC)C(=O)NC1C(=O)N(Cc2c(OC)ccc3ccccc23)c2ccccc2N(CC23CC4CC(CC(C4)C2)C3)C1=O` (stereo partly drawn) [Example 113, (2S)-N-[5-(1-adamantylmethyl)-1-[(2-methoxynaphthalen-1-yl)methyl]-2,4-dioxo-1,5-benzodiazepin-3-yl]-2-(methylamino)butanamide]: 0.324 µM and over 54.8 µM.
With `CC[C@H](NC)C(=O)NC1C(=O)N(C)c2ccccc2N(Cc2c(C)ccc3ccccc23)C1=O` (stereo partly drawn) [Example 114, (2S)-N-(1-methyl-5-((2-methylnaphthalen-1-yl)methyl)-2,4-dioxo-2,3,4,5-tetrahydro-1H-benzo[b][1,4]diazepin-3-yl)-2-(methylamino)butanamide], the IC50 in assay [1] (setting [3]) was 0.53 µM; in assay [2] it was over 54.8 µM.
As for `CC[C@H](NC)C(=O)NC1C(=O)N(Cc2c(C)ccc3ccccc23)c2ccccc2N(c2ccccc2)C1=O` (stereo partly drawn) [Example 115, (2S)-2-(methylamino)-N-(1-((2-methylnaphthalen-1-yl)methyl)-2,4-dioxo-5-phenyl-2,3,4,5-tetrahydro-1H-benzo[b][1,4]diazcpin-3-yl)butanamide], the IC50 in assay [1] (IC50 BIR2) is 0.0687 µM; in assay [2] it was over 54.8 µM.
With `CN[C@@H](C)C(=O)NC1C(=O)N(Cc2c(C)ccc3ccccc23)c2ccccc2N(c2ccccc2)C1=O` (stereo partly drawn) [Example 116, (2S)-2-(methylamino)-N-(1-((2-methylnaphthalen-1-yl)methyl)-2,4-dioxo-5-phenyl-2,3,4,5-tetrahydro-1H-benzo[b][1,4]diazepin-3-yl)propanamide], the figures for the IC50 in assay [1] (IC50 BIR2) and in assay [2] were 0.0398 µM and over 54.8 µM, respectively.
Take `CN[C@@H](C)C(=O)N[C@H]1CN(C(=O)c2ccc(C(C)=O)cc2)c2ccccc2N(Cc2nn(-c3ccccc3C#N)c3ccccc23)C1=O` [Example 120, (S)-N-((S)-5-(4-acetylbenzoyl)-1-((1-(2-cyanophenyl)-1H-indazol-3-yl)methyl)-2-oxo-2,3,4,5-tetrahydro-1H-benzo[b][1,4]diazepin-3-yl)-2-(methylamino)propanamide 2,2,2-trifluoroacetate]: the IC50 in assay [1] (setting [3]) was 0.00628 µM; in assay [2], over 54.8 µM.
With `CN[C@@H](C)C(=O)N[C@H]1CN(C(=O)c2ccc(N)cc2)c2cc(Cl)ccc2N(Cc2c(C)ccc3ccccc23)C1=O` [Example 121, (S)-N-((S)-5-(4-aminobenzoyl)-7-chloro-1-((2-methylnaphthalen-1-yl)methyl)-2-oxo-2,3,4,5-tetrahydro-1H-benzo[b][1,4]diazepin-3-yl)-2-(methylamino)propanamide hydrochloride], the figures for the IC50 in assay [1] (setting [3]) and in assay [2] were 0.0148 µM and 46.4 µM, respectively.
Regarding `CN[C@@H](C)C(=O)N[C@H]1CN(C(=O)c2ccc(N)cc2)c2cc(Cl)ccc2N(Cc2c(OC)ccc3c(Br)cccc23)C1=O` [Example 123, (S)-N-((S)-5-(4-aminobenzoyl)-1-((5-bromo-2-methoxynaphthalen-1-yl)methyl)-7-chloro-2-oxo-2,3,4,5-tetrahydro-1H-benzo[b][1,4]diazepin-3-yl)-2-(methylamino)propanamide hydrochloride], the IC50 in assay [1] (setting [3]) turned out to be 0.00671 µM; in assay [2], 18.7 µM.
`CN[C@@H](C)C(=O)N[C@H]1CN(C(=O)c2ccc(C(C)=O)cc2)c2cc(Cl)ccc2N(Cc2c(OC)ccc3c(Br)cccc23)C1=O` [Example 125, (S)-N-((S)-5-(4-acetylbenzoyl)-1-((5-bromo-2-methoxynaphthalen-1-yl)methyl)-7-chloro-2-oxo-2,3,4,5-tetrahydro-1H-benzo[b][1,4]diazepin-3-yl)-2-(methylamino)propanamide hydrochloride]: the IC50 amounted to 0.00792 µM in assay [1] (setting [3]) and 25.6 µM in assay [2].
As to `CN[C@@H](C)C(=O)N[C@H]1CN(C(=O)c2ccc(F)cc2)c2cc(Cl)ccc2N(Cc2c(OC)ccc3c(Br)cccc23)C1=O` [Example 126, (S)-N-((S)-1-((5-bromo-2-methoxynaphthalen-1-yl)methyl)-7-chloro-5-(4-fluorobenzoyl)-2-oxo-2,3,4,5-tetrahydro-1H-benzo[b][1,4]diazepin-3-yl)-2-(methylamino)propanamide hydrochloride], the IC50 was found to be 0.0172 µM in assay [1] (setting [3]) and 21.5 µM in assay [2].
In the case of `CN[C@@H](C)C(=O)NC1C(=O)N(Cc2c(OC)ccc3cc(Br)ccc23)c2ccccc2N(c2ccccc2)C1=O` (stereo partly drawn) [Example 128, (2S)-N-(1-((6-bromo-2-methoxynaphthalen-1-yl)methyl)-2,4-dioxo-5-phenyl-2,3,4,5-tetrahydro-1H-benzo[b][1,4]diazepin-3-yl)-2-(methylamino)propanamide], the IC50 in assay [1] (IC50 BIR2) is 0.00499 µM; in assay [2], 44.8 µM.
In the case of `CN[C@@H](C)C(=O)N[C@H]1CN(C(=O)c2ccc(F)cc2)c2cc(Cl)ccc2N(Cc2c(OC)ccc3cc(Br)ccc23)C1=O` [Example 130, (S)-N-((S)-1-((6-bromo-2-methoxynaphthalen-1-yl)methyl)-7-chloro-5-(4-fluorobenzoyl)-2-oxo-2,3,4,5-tetrahydro-1H-benzo[b][1,4]diazepin-3-yl)-2-(methylamino)propanamide hydrochloride], the IC50 worked out at 0.0356 µM in assay [1] (setting [3]) and 16.4 µM in assay [2].
Take `CCN[C@@H](CC)C(=O)NC1C(=O)N(Cc2c(OC)ccc3c(Br)cccc23)c2ccccc2N(c2ccccc2)C1=O` (stereo partly drawn) [Example 134, (2S)-N-(1-((5-bromo-2-methoxynaphthalen-1-yl)methyl)-2,4-dioxo-5-phenyl-2,3,4,5-tetrahydro-1H-benzo[b][1,4]diazepin-3-yl)-2-(ethylamino)butanamide]: the IC50 in assay [1] (IC50 BIR2) is 0.0325 µM; in assay [2], over 54.8 µM.

The values are drawn from patent US10053431B2, “Tetrahydro-benzodiazepinones” (priority 2013, dated 2018).
